Experimental data from publication PMC4521150, “Discovery of Novel Inhibitors and Fluorescent Probe Targeting NAMPT” (Scientific Reports, 2015).

Key:
[1] = molecular target: T1, recombinant human NAMPT (Homo sapiens, UniProt P43490); test: NAMPT activity assay, IC50 determination (fluorometric detection of NMN derivative); settings: molecular/biochemical assay, read-out: IC50 (NAMPT inhibition)
T1 construct: His tag (N); made in house; host or cells: E. coli BL21-CodonPlus (DE3)-RIL, pET21a+ vector
T1 sequence (P43490 whole entry): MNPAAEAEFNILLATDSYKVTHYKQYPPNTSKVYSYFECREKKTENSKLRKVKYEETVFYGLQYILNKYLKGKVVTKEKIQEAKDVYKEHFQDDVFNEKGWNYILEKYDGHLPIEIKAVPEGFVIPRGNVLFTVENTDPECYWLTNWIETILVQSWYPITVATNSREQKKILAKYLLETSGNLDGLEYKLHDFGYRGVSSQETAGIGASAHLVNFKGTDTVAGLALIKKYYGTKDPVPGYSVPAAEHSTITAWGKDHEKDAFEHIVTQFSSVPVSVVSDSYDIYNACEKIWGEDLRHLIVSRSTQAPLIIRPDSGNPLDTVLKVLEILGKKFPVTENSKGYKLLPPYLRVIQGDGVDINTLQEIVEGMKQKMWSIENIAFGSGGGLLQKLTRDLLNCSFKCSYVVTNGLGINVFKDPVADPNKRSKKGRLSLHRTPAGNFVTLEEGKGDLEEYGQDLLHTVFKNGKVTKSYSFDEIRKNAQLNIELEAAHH
Source text: Using our previously established high throughput screening (HTS) platform and recombinant human NAMPT[14][15], we performed a HTS on a chemical library containing 30000 small-molecules (Chemdiv, CA, USA). Our HTS targeting NAMPT was developed based on a fluorometric method for NAMPT activity assay by measuring the fluorescence of nicotinamide mononucleotide (NMN) derivative resulting from the NAMPT enzymatic product NMN through simple chemical reactions (Fig. 1A). […] These fluorescent and non-fluorescent compounds were further studied separately.
HTS was performed using our previously reported method. 0.5 μl stock of each compound (1 mM DMSO stock) was transferred to a 96-well PCR plate for screening. In the primary screening, 5 ng NAMPT in 20 μl reaction buffer [0.4 mM phosphoribosylpyrophosphate (PRPP, Sigma), 2 mM ATP, 0.02% BSA, 2 mM DTT, 12 mM MgCl2 and 50 mM Tris-HCl (pH = 7.5)] was added into each well, the plate was incubated at 37 °C for 5 min, then 4.5 μl substrate of NAM was added to initiate the enzyme reaction, resulting in a final concentration of 2% DMSO, 2 μg/ml NAMPT, 0.2 μM NAM and 20 μM compound. After reacting at 37 °C for 15 min, the enzyme reaction was terminated by heating at 95 °C for 1 min and cooling in an ice bath. The product of NMN was detected through the following approach: after adding 10 μl 20% acetophenone in DMSO and 10 μl 2 M KOH into each well, the mixture was vortex-mixed and kept in ice bath for 2 min. […] Finally, 85 μl mixtures in each well were transferred into a flat-bottom 96-well black plate (Greiner), and the fluorescence (F) was measured using a Tecan Infinity M200 plate reader (Tecan Group Ltd.) by setting the excitation and emission wavelength to 382 nm and 445 nm respectively. The last row of each 96-well plate includes six wells of background controls and six wells of reference controls. The relative enzyme activity (Activity%) regulated by specific compound was calculated according to equation (1): […]
To determine the IC50 of inhibitors, 0.5 μl compound stocks with various concentrations were added into 96-well plate. The plate was incubated at 37 °C for 5 min after addition of 20 μl reaction buffer containing NAMPT. […] The IC50 values were determined by non-linear fitting of the concentration-dependent curves with the four-parameter IC50 logistic equation.

[2] = tested on: HepG2 cells; test: Cell viability assay (CCK-8) in HepG2 cells; format: cell-based, human; settings: 2 μM, 48 hours of incubation
Procedure: Cell viability was determined by our previous method[27] using the Cell Counting Kit-8 (CCK-8, Dojindo, Japan). In human hepatocellular carcinoma cell line HepG2, cells were seeded in 96-well plate and starved for over 12 h with serum-free DMEM at 60~70% confluency, then treated with compounds or vehicle for 48 h. To determine the IC50 values of inhibitors, compounds with various concentrations were added into the 96-well plate. 10 μl CCK-8 solution was added to the culture medium and incubated at 37 °C for 1 h. The absorbance at 450 nm (A450) was detected by a plate reader. Each experiment was carried out in triplicate in three replicate wells. The IC50 values were determined by non-linear fitting of the concentration-dependent curves with the four-parameter IC50 logistic equation.

[3] = molecular target: T1, recombinant human NAMPT; test: HTS / fixed-concentration NAMPT activity screen (fluorometric); format: biochemical; settings: 20 μM compound; analogues of the 46 non-fluorescent inhibitors
Source text: Using our previously established high throughput screening (HTS) platform and recombinant human NAMPT[14][15], we performed a HTS on a chemical library containing 30000 small-molecules (Chemdiv, CA, USA). Our HTS targeting NAMPT was developed based on a fluorometric method for NAMPT activity assay by measuring the fluorescence of nicotinamide mononucleotide (NMN) derivative resulting from the NAMPT enzymatic product NMN through simple chemical reactions (Fig. 1A). The 30000 compounds were dissolved with dimethyl sulfoxide (DMSO); most of compounds were soluble at 10 mM stock solution (94.1%), some compounds insoluble at 10 mM were soluble at 2.5 mM stock solution (4.4%), and the remaining compounds insoluble at 2.5 mM (1.5%) were diluted further during HTS experiments (Fig. 1B). To guarantee the quality of screening, S/N ratio, CV and Z’ factors were monitored throughout the screenings, and all three indices met the requirements of HTS (Fig. 1C–E). After a primary screen and a secondary screen of all compounds at 20 μM, 242 compounds were selected as the hits of NAMPT inhibitors (NAMPT activity < 40%), and the hit rate was ~0.8% (Fig. 1F). […] All these 55 compounds were not reported as NAMPT inhibitors previously. Among the 55 compounds, we noted 46 compounds were non-fluorescent and 9 compounds were fluorescent (Fig. 1F). These fluorescent and non-fluorescent compounds were further studied separately.
HTS was performed using our previously reported method. 0.5 μl stock of each compound (1 mM DMSO stock) was transferred to a 96-well PCR plate for screening. In the primary screening, 5 ng NAMPT in 20 μl reaction buffer [0.4 mM phosphoribosylpyrophosphate (PRPP, Sigma), 2 mM ATP, 0.02% BSA, 2 mM DTT, 12 mM MgCl2 and 50 mM Tris-HCl (pH = 7.5)] was added into each well, the plate was incubated at 37 °C for 5 min, then 4.5 μl substrate of NAM was added to initiate the enzyme reaction, resulting in a final concentration of 2% DMSO, 2 μg/ml NAMPT, 0.2 μM NAM and 20 μM compound. After reacting at 37 °C for 15 min, the enzyme reaction was terminated by heating at 95 °C for 1 min and cooling in an ice bath. The product of NMN was detected through the following approach: after adding 10 μl 20% acetophenone in DMSO and 10 μl 2 M KOH into each well, the mixture was vortex-mixed and kept in ice bath for 2 min. Then 45 μl 88% formic acid was added and the mixture was incubated at 37 °C for 10 min. Finally, 85 μl mixtures in each well were transferred into a flat-bottom 96-well black plate (Greiner), and the fluorescence (F) was measured using a Tecan Infinity M200 plate reader (Tecan Group Ltd.) by setting the excitation and emission wavelength to 382 nm and 445 nm respectively. The last row of each 96-well plate includes six wells of background controls and six wells of reference controls. The relative enzyme activity (Activity%) regulated by specific compound was calculated according to equation (1):
F0 was the averaged fluorescence of six background controls, representing zero activity from a simulated enzyme reaction with only NAMPT but no NAM and compound; F100% was the averaged fluorescence of six reference controls, representing 100% activity from intact enzyme reaction without compound perturbation.
Compounds with Activity% less than 40% were considered as inhibitors and subjected to a secondary screen inhibition validation, in which another background control (FC0), a simulated enzyme reaction with NAMPT and compound but no NAM, was introduced to eliminate the direct and/or indirect influence from compound. At this stage, the Activity% was calculated according to equation (2): […]

SMILES	IC50 [1]	Effect on HepG2 cell viability at 2 μM [2]	NAMPT inhibition activity at 20 μM [3]
CSc1ccc(CCNC(=O)NCc2noc3ccccc23)cc1 [E567-0304]	126 ± 4.23 nM		
CCCc1cc(Nc2ccc(C(=O)NCc3cccnc3)cc2)n2nc(-c3cccnc3)nc2n1 [D515-0654]	283 ± 19.2 nM	significant inhibition on cell viability	
Cc1ccc(CNC(=O)c2ccc(Cn3c(=O)c4cccn4c4cccnc43)cc2)cc1 [E524-1599]	97.8 ± 3.13 nM	significant inhibition on cell viability	
Cc1cccc(CNC(=O)c2ccc(Cn3c(=O)c4cccn4c4cccnc43)cc2)c1 [E524-1627]	85.5 ± 11.1 nM	significant inhibition on cell viability	
O=C(NCCc1ccccc1)c1ccc(Cn2c(=O)c3cccn3c3cccnc32)cc1 [E524-1628]	70.9 ± 0.74 nM		
CC(=O)c1ccc(NC(=O)Cc2noc3ccccc23)cc1 [E207-0481]	739 ± 37.8 nM		
Cc1cc2nc(C)c(=O)n(Cc3ccc(C(=O)NCc4ccccn4)cc3)c2cc1C [F671-0199]	171 ± 16.8 nM		
CCn1c(=O)c(=O)n(Cc2ccc(C(=O)NCc3cccc(Cl)c3)cc2)c2cccnc21 [F704-0076]	1000 ± 57 nM		
O=C(NCCCN1CCCC1=O)c1ccc(N2CCc3ccccc32)s1 [G122-1637]	411 ± 148 nM		
CC1CCN(c2c(NCc3ccc(C(=O)NCc4ccc(F)cc4)cc3)c(=O)c2=O)CC1 [C852-0431]	869 ± 67.2 nM		
CC(=O)C1=C(C)Nc2ccccc2S1 [1932-0007]	408.6 ± 1.83 nM		
COc1ccc(OC)c(CCNC(=O)NCc2noc3ccccc23)c1 [E567-0302]	401 ± 11.2 nM		
CCn1c(=O)c(=O)n(Cc2ccc(C(=O)NCc3ccccc3F)cc2)c2cccnc21 [F704-0231]	1450 ± 143 nM		
CC1CCN(c2c(NCc3ccc(C(=O)NCCc4ccccc4)cc3)c(=O)c2=O)CC1 [C852-0409]	1280 ± 154 nM		
Cc1nn(CCCC(=O)Nc2cccc(F)c2)c(=O)c2c1sc1ccccc12 [E019-0970]	298 ± 32.1 nM		
O=C(NCc1noc2ccccc12)NC1CCCCC1 [E567-0011]	1620 ± 57.9 nM		
Cc1ccccc1-c1nnc(COc2ccc(NC(=O)c3cnccn3)cc2)o1 [M350-1052]	60.8 ± 2.61 nM		
O=C(Nc1ccc(OCc2nnc(-c3ccccc3)o2)cc1)c1cnccn1 [M350-0100]	60.2 ± 3.63 nM	significant inhibition on cell viability	Yes
O=C(Nc1cccnc1)c1ccc(-n2cnnn2)cc1 [D633-0045]	416 ± 30.7 nM		

SMILES	IC50 [1]	Effect on HepG2 cell viability at 2 μM [2]	NAMPT inhibition activity at 20 μM [3]
CCn1c(=O)c(=O)n(Cc2ccc(C(=O)NCc3cccc(Br)c3)cc2)c2cccnc21 [F704-0251]	517 ± 37.9 nM		
O=C(CSc1nc2c(c(C(F)(F)F)n1)CCc1ccccc1-2)NCCCn1ccnc1 [6466-0191]	59.4 ± 1.15 nM		
COc1ccc(-c2nnc(COc3ccc(NC(=O)c4cnccn4)cc3)o2)cc1 [M350-0814]	118 ± 10.7 nM	significant inhibition on cell viability	
O=C(NCc1ccccc1)c1ccc(Cn2c(=O)c3cccn3c3cccnc32)cc1 [E524-1566]	140 ± 7.31 nM	significant inhibition on cell viability	
COc1ccc(NC(=O)NCc2noc3ccccc23)cc1Cl [E567-0014]	411 ± 28.1 nM		
CCn1c(=O)c(=O)n(Cc2ccc(C(=O)NCc3ccc(Cl)cc3)cc2)c2cccnc21 [F704-0088]	296 ± 7.61 nM		
CC(=O)c1cccc(NC(=O)NCc2noc3ccccc23)c1 [E567-0248]	250 ± 40.7 nM		
CCOC(=O)c1ccc(NC(=O)NCc2noc3ccccc23)cc1 [E567-0238]	86.9 ± 2.77 nM		
COc1ccc(CNC(=O)c2ccc(Cn3c(=O)c4cccn4c4cccnc43)cc2)cc1 [E524-1597]	75.9 ± 3.51 nM		
CCc1ccc(NC(=O)NCc2noc3ccccc23)cc1 [E567-0089]	62.6 ± 2.89 nM		
O=C(NCc1ccc(Cl)cc1)c1ccc(CNc2c(N3CCCCC3)c(=O)c2=O)cc1 [C804-0859]	704 ± 16.7 nM		
CN1C(=O)C(C)(C)c2cc(S(=O)(=O)NCc3ccc(C(=O)NCc4cccnc4)cc3)ccc21 [E589-3083]	116 ± 13.1 nM		
Cc1ccccc1CCNC(=O)c1ccc(Cn2c(=O)c3cccn3c3cccnc32)cc1 [E524-1763]	253 ± 17.9 nM		
COc1ccc(NC(=O)NCc2noc3ccccc23)cc1 [E567-0222]	171 ± 10.7 nM	significant inhibition on cell viability	
CC(C)CCNC(=O)c1ccc(Cn2c(=O)c3cccn3c3cccnc32)cc1 [E524-1626]	393 ± 8.51 nM		
COc1ccc(CCNC(=O)NCc2noc3ccccc23)c(OC)c1 [E567-0299]	202 ± 17.6 nM		
O=C(CSC1=Nc2ccccc2N=C(c2ccccn2)C1)Nc1ccc2c(c1)OCCO2 [C201-1928]	1450 ± 51.7 nM		
O=C(CSC1=Nc2ccccc2N=C(c2cccs2)C1)Nc1ccc2c(c1)OCCO2 [C201-1487]	172 ± 17.3 nM		Yes
